Measured values from patent US11578049B2, “Benzoic acid compound and method for preparing the same” (Henan Genuine Biotech Co., Ltd., priority 2018, dated 2023).
Several values for one entry are separate records, joined by “and”; a condition that tells them apart may be missing. Equal entries are not always repeated.

Columns and labels:
[1] = system: rats exposed to cerebral ischemia and reperfusion; experiment: Infarct area of rats exposed to cerebral ischemia and reperfusion (tMCAO), TTC staining; type: in vivo, Sprague Dawley (SD) rats; conditions: 3 mg/kg iv immediately after reperfusion; for Cerebral infarction ratio: TTC, infarct area / total brain area; for Percentage inhibition of cerebral infarction: versus model group
Protocol: (§1) 1.2 Experimental procedure: Male Sprague Dawley (SD) rats was subjected to operation after experimental adaption for 5-7 days, with a weight of 200-250 g. The rats were anesthetized by intraperitoneal injection of 0.35 mL/100 g 10% chloral hydrate, and positioned on a temperature-controlled, operating surface. The common carotid artery was isolated from surrounding nerves to the bifurication between the external carotid artery and the internal carotid artery. The external carotid artery was then isolated. A sterile middle cerebral artery occlusion (MCAO) suture was advanced through external carotid artery into the internal carotid artery (about 18 mm±0.5 mm from the point of the carotid bifurication), effectively occluding the middle cerebral artery. The suture was withdrawn after 2 hours ischemic period to simulate clinical reperfusion. All rats were scored according to Longa scoring system, in which the rats with a total score less than 1 were withdrawn. The rats were kept on a heating blanket and allowed to recover from anesthesia. A neurobehavioral examination was performed at 24 h after awakening. Blood was drawn from each rat under anesthesia, collected in a tube containing K2-EDTA as anticoagulant for stabilizing the blood samples, centrifuged to separate supernatant from precipitate, and stored at […]. Then the rats were euthanized. The brains were cut into slices, stained with 2,3,5-triphenyltetrazolium chloride (TTC), and used to determine the infarct area. The experiment was complete within 3 days, with 3-4 rats per group daily.
(§2) 1.7 Drug preparation: The drugs to be tested were accurately weighed, dissolved in physiological saline to give a final concentration of 1.5 mg/mL.
(§3) 1.8 Administration method: The drugs were removed from the refrigerator and […] to room temperature before the rats were dosed. The dosing volume was 2 mL/kg.
1.9.2 Cerebral infarction ratio: The rats were euthanized with chloral hydrate (330 mg/kg anesthesia), given by CO2 inhalation, and blood was drawn by cardiac puncture. The brains were removed from the skull and cut into 2 mm coronal slices using a rat brain matrix. Each slice was stained with 1% TTC at 37° C. for 5 minutes, protected from light, and were photographed. The ratio of infarct area was then determined using an image analysis software Image Pro Plus 6.0. The infarct areas were summed and divided by total brain area to yield the ratio of infarct area.
(§4) All data was imported into an Excel worksheet, and expressed as mean±standard error of the mean. Statistical significance was determined by one-way ANOVA with Dunnett's multiple comparison test (*P<0.05, **P<0.01).

[2] = Metabolic stability measured in human liver microsomes; conditions: for t1/2 (elimination half-life): human liver microsomes 1.0 mg/ml, compound 2 μg/mL, NADPH 2 mM, pH 7.4, 37° C.; for half-life at 2 μg/mL: human, pH 7.4
mice = conditions: for median lethal dose: acute toxicity test
in vivo = conditions: mouse
[3] = system: rats exposed to cerebral ischemia and reperfusion; experiment: Cerebral blood flow in rats exposed to cerebral ischemia and reperfusion (tMCAO), laser Doppler; type: in vivo, Sprague Dawley (SD) rats; conditions: for Reperfusion/Postoperative (cerebral blood flow recovery): 2 hours ischemia, 3 mg/kg iv immediately after reperfusion; for Postoperative/Preoperative (cerebral blood flow): blood flow immediately after initiation of ischemia relative to before the operation, drug 3 mg/kg iv given immediately after reperfusion
Protocol: as §1
1.3 Intraoperative monitoring: Transcranial measurement of cerebral blood flow was made using […] at three points, namely before the operation, immediately after the initiation of ischemia, and immediately after reperfusion.
as §2, §3, §4

[4] = Physical properties of the salts (water absorption); type: physicochemical; conditions: solid salt
Text: 5. The type of the salt of the compound 5 affects its physical properties. […] In addition, the excess alkali leads to the closed-loop reaction between hydroxyl group and fluorine atom. Potassium hydroxide contacts the compound 12 to yield a potassium salt which is not a solid. […] Therefore, high-purity of potassium salt and sodium salt products are not easy to obtain in this disclosure, which is unfavorable to large-scale production. Therefore, the following compounds are also included in the present invention: […]

in vitro = conditions: human, microsomes, pH 7.4
[5] = text: recovery relative to preoperative, 3 mg/kg

CCCCC(O)c1ccccc1C(=O)[O-].[K+] (centres unmarked) [Potassium butylphthalide]
Cerebral infarction ratio ([1]; 3 mg/kg): 37.5%
Cerebral infarction ratio ([1]; listed as potassium butylphthalide, 3 mg/kg): 37.5%
Percentage inhibition of cerebral infarction ([1]; 3 mg/kg): 26.4%
Percentage inhibition of cerebral infarction ([1]; listed as butylphthalide potassium, 3 mg/kg): 26.4%
t1/2 (elimination half-life) ([2]; listed as Potassium Butylphthalide): <1 h
t1/2 (elimination half-life) ([2]; listed as potassium butylphthalide): less than 1 h
median lethal dose (mice): 373 mg
LD50 (median lethal dose) (mice; injected via tail vein): 373 mg/kg

O=C(O)c1cc(Br)ccc1C(O)CCCCF (centres unmarked) [Compound 17]
LD50 (in vivo; intravenous): 1100 mg/kg
Reperfusion/Postoperative (cerebral blood flow recovery) [3, 5]: 95.6% and 95.3%
Postoperative/Preoperative (cerebral blood flow) [3]: 15.5%
Cerebral infarction ratio [1]: 11.8%
Percentage inhibition of cerebral infarction [1]: 77.4%
water absorption in the air [4]: no water absorption
half-life at 2 μg/mL (in vitro): 19.3 h

O=C([O-])c1cc(Br)ccc1C(O)CCC1CC1.[Na+] (centres unmarked) [Compound 14]
Reperfusion/Postoperative (cerebral blood flow recovery) ([3]; recovery relative to preoperative): 88.3%
Postoperative/Preoperative (cerebral blood flow) [3]: 13.5%
half-life at 2 μg/mL ([2]; human liver microsomes): 2.44 h

O=C([O-])c1cc(Br)ccc1C(O)CCCCF.[Na+] (centres unmarked) [Compound 15]
LD50 (in vivo): 1040 mg/kg
Reperfusion/Postoperative (cerebral blood flow recovery) [3, 5]: 95.6%
Reperfusion/Postoperative (cerebral blood flow recovery) ([3]; text: recovery relative to preoperative, listed as compound 15, 3 mg/kg): 95.3% and 95.6%
Postoperative/Preoperative (cerebral blood flow) [3]: 16.8%
Cerebral infarction ratio ([1]; 3 mg/kg): 12.0%
Cerebral infarction ratio ([1]; listed as compound 15, 3 mg/kg): 12.0%
Percentage inhibition of cerebral infarction ([1]; 3 mg/kg): 75.3%
Percentage inhibition of cerebral infarction ([1]; listed as compound 15, 3 mg/kg): 75.3%
water absorption in the air [4]: easy to absorb water in the air
half-life at 2 μg/mL ([2]; microsomes): 19.1 h
median lethal dose (mice): 1036 mg
